How the values were obtained:
[1] = biological target: serotoninergic 5-HT7 receptor (Homo sapiens, UniProt P34969); test: Binding assay 5-HT7 (h), [3H]LSD, CHO cells; design: expressed in transfected cells; host or cells: CHO cells; conditions: read-out: 5-HT7
Outline: (§1)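 Detection relied on scintillation counting of bound ligand. Compounds at 1×10^−6 M were evaluated against specific binding, i.e. total binding corrected for the nonspecific fraction seen with excess unlabelled ligand.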

sigma σ receptor = test: Binding assay σ (non-selective), [3H]DTG, rat cerebral cortex; conditions: percent inhibition of control specific binding; compounds tested at 1×10^−6 M
Protocol: (§2) The specific ligand binding to the receptors is defined as the difference between the total binding and the nonspecific binding determined in the presence of an excess of so unlabelled ligand.
(§3) The specific Ligand binding to the receptor is defined as the difference between total and non-specific binding determined in the presence of an excess of unlabelled ligand. The compounds were tested at a concentration of 1×10^−6 M, and scintillation counting was the method of detection of ligand binding.

dopaminergic D3 receptor = dopaminergic D3 receptor (Homo sapiens, UniProt P35462); test: Binding assay D3 (h), [3H]methyl-spiperone, CHO cells; design: expressed in transfected cells; host or cells: CHO cells; conditions: read-out: D3 [%]
Outline: as §1

[2] = biological target: T1, serotonine transporter (SERT) receptor (Homo sapiens, UniProt P31645); test: Binding assay SERT (h), [3H]imipramine, CHO cells; conditions: read-out: SERT [%]
T1 construct: expressed in transfected cells; host or cells: CHO cells
Outline: as §1

adrenergic α1 receptor = test: Binding assay α1 (non-selective), [3H]prazosin, rat cerebral cortex; conditions: percent inhibition of control specific binding; compounds tested at 1×10^−6 M
Outline: as §1

dopaminergic D2 receptor = dopaminergic D2 receptor (Homo sapiens, UniProt P14416); test: Binding assay D2S (h), [3H]methyl-spiperone, HEK-293 cells; design: expressed in transfected cells; host or cells: HEK-293 cells; conditions: read-out: D2 [%]
Outline: as §1

muscarinic M3 receptor = biological target: T2, muscarinic M3 receptor (Homo sapiens, UniProt P20309); test: Binding assay M3 (h), [3H]4-DAMP, CHO cells; conditions: read-out: M3 [%]
T2 construct: expressed in transfected cells; host or cells: CHO cells
Protocol: as §2, §3

[3] = biological target: histaminergic H1 receptor (Homo sapiens, UniProt P35367); test: Binding assay H1 (h), [3H]pyrilamine, HEK-293 cells; design: expressed in transfected cells; host or cells: HEK-293 cells; conditions: read-out: H1 [%]
Protocol: as §2, §3

[4] = biological target: T3, serotoninergic 5-HT1A receptor (Homo sapiens, UniProt P08908); test: Binding assay 5-HT1A (h), [3H]8-OH-DPAT, HEK-293 cells; design: expressed in transfected cells; host or cells: HEK-293 cells; conditions: read-out: 5-HT1A
T3 sequence (P08908 1-422): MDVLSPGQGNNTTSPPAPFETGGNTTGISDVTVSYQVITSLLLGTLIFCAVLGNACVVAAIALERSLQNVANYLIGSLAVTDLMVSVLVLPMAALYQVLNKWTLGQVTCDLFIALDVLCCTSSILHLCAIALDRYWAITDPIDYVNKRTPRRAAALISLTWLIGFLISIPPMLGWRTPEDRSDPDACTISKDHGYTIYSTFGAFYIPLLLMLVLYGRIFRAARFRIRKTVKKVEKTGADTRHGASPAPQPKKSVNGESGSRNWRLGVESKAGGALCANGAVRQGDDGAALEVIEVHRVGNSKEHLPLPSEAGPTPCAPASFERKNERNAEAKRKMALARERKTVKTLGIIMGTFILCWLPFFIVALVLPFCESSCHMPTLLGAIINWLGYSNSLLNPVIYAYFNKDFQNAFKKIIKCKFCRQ
Outline: as §1

adrenergic α2C receptor = biological target: T4, adrenergic α2C receptor (Homo sapiens, UniProt P18825); test: Binding assay α2C (h), [3H]RX 821002, CHO cells; design: expressed in transfected cells; host or cells: CHO cells; conditions: read-out: α2C [%]
T4 sequence (P18825 1-462): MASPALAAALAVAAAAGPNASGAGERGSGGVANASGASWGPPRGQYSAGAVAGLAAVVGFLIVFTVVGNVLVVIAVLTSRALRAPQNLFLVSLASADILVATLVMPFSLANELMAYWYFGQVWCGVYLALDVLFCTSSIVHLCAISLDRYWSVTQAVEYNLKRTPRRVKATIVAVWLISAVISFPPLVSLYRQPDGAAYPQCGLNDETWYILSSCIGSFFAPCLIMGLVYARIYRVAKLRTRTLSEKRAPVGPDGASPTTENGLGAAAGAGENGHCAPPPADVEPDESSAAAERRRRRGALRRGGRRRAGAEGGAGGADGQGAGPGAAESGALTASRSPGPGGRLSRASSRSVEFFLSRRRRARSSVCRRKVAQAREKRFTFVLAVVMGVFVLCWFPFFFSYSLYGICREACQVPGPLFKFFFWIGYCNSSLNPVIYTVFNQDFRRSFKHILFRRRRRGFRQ
Protocol: as §2, §3

[5] = biological target: serotoninergic 5-HT2A receptor (Homo sapiens, UniProt P28223); test: Binding assay 5-HT2A (h), [3H]ketanserin, HEK-293 cells; design: expressed in transfected cells; host or cells: HEK-293 cells; conditions: read-out: 5-HT2A
Outline: as §1

[6] = biological target: serotoninergic 5-HT6 receptor (Homo sapiens, UniProt P50406); test: Binding assay 5-HT6 (h), [3H]LSD, CHO cells; design: expressed in transfected cells; host or cells: CHO cells; conditions: read-out: 5-HT6
Outline: as §1

[7] = biological target: T5, serotoninergic receptor 5-HT2C (Homo sapiens, UniProt P28335); test: Binding assay 5-HT2C (h), [3H]mesulergine, HEK-293 cells; conditions: read-out: 5-HT2C [%]
T5 construct: expressed in transfected cells; host or cells: HEK-293 cells
T5 sequence (P28335 33-458): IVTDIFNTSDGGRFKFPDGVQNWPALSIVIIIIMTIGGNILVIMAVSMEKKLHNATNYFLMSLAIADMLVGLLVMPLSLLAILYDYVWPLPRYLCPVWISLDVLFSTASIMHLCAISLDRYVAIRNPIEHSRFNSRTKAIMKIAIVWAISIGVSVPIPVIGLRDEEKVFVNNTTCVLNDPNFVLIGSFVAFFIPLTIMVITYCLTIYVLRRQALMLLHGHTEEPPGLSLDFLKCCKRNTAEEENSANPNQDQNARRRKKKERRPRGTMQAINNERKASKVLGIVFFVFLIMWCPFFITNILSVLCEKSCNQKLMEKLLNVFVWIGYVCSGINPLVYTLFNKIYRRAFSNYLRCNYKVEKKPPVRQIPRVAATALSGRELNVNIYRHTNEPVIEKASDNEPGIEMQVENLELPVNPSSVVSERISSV
Protocol: as §2, §3

Chain of dopaminergic D2 receptor (P14416 1-414 isoform P14416-2): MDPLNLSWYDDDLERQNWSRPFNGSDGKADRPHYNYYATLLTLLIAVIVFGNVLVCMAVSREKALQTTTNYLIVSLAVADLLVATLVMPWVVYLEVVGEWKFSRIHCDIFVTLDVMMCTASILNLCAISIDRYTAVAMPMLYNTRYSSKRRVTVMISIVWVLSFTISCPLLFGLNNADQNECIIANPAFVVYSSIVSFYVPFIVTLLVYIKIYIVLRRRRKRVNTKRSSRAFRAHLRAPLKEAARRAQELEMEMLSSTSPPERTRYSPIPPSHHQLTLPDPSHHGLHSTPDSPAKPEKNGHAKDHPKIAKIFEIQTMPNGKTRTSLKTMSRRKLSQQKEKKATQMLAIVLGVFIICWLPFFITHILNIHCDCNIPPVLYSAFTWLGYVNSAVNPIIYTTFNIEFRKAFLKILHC
T1 sequence (P31645 whole entry): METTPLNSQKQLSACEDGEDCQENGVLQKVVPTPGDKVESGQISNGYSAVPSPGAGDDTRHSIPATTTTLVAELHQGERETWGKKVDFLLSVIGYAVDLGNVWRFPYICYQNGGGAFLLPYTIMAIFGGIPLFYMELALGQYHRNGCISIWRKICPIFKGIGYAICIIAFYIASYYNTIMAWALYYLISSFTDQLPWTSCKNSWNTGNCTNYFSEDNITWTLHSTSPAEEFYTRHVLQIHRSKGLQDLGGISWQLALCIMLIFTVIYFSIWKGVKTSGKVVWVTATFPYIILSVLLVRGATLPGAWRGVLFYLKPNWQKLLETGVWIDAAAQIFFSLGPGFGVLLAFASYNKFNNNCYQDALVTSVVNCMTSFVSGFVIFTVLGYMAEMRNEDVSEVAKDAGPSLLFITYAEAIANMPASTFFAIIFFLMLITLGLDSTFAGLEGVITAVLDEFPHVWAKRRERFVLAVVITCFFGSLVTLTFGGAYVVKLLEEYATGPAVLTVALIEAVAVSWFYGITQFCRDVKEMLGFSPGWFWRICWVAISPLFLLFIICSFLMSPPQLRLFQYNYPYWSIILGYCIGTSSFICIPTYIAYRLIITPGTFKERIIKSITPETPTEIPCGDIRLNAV
Chain of histaminergic H1 receptor (P35367 whole entry): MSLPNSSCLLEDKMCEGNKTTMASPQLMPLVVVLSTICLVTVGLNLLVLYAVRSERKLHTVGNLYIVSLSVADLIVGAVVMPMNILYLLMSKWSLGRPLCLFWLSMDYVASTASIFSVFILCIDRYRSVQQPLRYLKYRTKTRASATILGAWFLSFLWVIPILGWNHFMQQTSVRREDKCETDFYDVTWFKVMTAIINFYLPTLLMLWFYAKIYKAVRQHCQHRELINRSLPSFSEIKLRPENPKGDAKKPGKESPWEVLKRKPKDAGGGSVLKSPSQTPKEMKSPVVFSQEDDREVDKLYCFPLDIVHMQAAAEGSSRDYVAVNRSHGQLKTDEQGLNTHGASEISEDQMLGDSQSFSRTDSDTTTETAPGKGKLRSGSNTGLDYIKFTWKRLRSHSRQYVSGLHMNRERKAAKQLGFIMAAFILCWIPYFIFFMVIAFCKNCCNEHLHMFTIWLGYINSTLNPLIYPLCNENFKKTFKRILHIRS
T2 sequence (P20309 whole entry): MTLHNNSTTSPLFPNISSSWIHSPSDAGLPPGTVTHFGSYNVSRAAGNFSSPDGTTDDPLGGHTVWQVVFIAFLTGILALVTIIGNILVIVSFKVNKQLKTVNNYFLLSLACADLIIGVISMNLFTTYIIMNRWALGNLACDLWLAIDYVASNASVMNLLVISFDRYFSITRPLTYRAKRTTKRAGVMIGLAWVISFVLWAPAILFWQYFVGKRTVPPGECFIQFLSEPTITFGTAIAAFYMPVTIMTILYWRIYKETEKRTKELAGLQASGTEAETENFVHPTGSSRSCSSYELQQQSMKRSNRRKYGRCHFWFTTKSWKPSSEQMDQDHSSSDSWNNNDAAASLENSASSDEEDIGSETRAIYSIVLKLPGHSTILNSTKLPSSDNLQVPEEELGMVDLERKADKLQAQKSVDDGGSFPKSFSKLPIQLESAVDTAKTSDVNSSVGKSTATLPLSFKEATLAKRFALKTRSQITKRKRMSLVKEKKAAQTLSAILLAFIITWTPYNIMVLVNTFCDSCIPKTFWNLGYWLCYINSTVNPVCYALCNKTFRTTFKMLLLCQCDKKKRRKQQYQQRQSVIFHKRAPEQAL
Chain of serotoninergic 5-HT6 receptor (P50406 whole entry): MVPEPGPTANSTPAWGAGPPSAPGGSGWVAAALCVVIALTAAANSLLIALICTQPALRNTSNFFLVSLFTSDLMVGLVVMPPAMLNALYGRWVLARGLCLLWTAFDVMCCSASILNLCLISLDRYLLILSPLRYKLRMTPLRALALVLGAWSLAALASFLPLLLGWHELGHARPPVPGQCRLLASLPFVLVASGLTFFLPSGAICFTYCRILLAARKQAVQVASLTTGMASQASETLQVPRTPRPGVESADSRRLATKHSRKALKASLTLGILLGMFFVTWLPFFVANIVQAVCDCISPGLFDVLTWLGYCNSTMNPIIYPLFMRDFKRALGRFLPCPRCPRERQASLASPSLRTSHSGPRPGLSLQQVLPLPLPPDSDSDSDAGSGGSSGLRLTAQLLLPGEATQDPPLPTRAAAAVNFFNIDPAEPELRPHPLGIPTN
Chain of serotoninergic 5-HT2A receptor (P28223 whole entry): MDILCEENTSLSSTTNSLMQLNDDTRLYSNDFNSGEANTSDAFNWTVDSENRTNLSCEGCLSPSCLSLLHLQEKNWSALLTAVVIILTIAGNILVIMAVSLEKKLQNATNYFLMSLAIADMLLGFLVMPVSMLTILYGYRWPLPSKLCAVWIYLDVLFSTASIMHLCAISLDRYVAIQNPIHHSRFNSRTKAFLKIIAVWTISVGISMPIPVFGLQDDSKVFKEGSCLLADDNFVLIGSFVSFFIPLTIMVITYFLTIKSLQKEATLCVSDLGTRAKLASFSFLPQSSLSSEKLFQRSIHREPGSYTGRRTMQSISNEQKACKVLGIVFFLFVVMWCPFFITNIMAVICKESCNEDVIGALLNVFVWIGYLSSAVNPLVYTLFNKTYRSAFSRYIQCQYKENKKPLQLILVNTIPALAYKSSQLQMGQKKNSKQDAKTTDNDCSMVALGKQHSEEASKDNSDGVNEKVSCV
Chain of serotoninergic 5-HT7 receptor (P34969 whole entry): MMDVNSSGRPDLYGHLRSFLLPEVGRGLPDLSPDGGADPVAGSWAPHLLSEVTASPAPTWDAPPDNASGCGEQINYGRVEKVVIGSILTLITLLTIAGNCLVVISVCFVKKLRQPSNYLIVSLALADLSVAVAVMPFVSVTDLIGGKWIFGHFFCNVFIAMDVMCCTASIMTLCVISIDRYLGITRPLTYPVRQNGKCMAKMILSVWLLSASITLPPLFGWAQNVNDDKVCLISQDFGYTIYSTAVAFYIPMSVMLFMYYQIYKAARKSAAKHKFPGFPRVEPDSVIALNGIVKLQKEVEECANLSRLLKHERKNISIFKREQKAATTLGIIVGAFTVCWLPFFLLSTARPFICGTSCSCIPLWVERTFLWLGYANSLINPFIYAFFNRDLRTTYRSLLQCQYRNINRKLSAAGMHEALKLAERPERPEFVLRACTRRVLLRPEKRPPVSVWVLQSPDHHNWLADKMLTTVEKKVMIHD
Chain of dopaminergic D3 receptor (P35462 whole entry): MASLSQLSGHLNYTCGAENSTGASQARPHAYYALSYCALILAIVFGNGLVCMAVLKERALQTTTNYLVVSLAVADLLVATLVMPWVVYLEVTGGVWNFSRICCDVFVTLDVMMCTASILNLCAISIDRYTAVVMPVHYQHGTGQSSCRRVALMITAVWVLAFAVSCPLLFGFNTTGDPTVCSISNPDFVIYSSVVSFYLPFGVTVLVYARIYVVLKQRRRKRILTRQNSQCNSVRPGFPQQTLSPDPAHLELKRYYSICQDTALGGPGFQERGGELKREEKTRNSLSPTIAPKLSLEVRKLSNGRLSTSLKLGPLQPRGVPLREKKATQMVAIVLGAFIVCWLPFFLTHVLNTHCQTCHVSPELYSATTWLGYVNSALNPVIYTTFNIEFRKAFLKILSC

## O=S(=O)(NCCCN1CCN(c2nsc3ccccc23)CC1)c1cccs1 [Compound 261, N-[3-[4-(1,2-Benzothiazol-3-yl)piperazin-1-yl]propyl]thiophene-2-sulphonamide]
[1]
  inhibition at 1 µM: 100%
Sigma σ receptor
  σ [%]: 57%
Dopaminergic D3 receptor
  inhibition at 1 µM: 98%
[2]
  inhibition at 1 µM: 60%
Adrenergic α1 receptor
  α1 [%]: −90%
Dopaminergic D2 receptor
  inhibition at 1 µM: 97%
Muscarinic M3 receptor
  inhibition at 1 µM: 15%
[3]
  inhibition at 1 µM: 92%
[4]
  inhibition at 1 µM: 98%
Adrenergic α2C receptor
  inhibition at 1 µM: 92%
[5]
  inhibition at 1 µM: 102%
[6]
  inhibition at 1 µM: 83%
[7]
  inhibition at 1 µM: 87%

## O=S(=O)(NCCCCN1CCC(c2noc3cc(F)ccc23)CC1)c1cc2ccccc2o1 [Compound 316, N-[4-[4-(6-Fluoro-1,2-benzoxazol-3-yl)piperidin-1-yl]butyl]benzofuran-2-sulphonamide]
[1]
  inhibition at 1 µM: 97%
Sigma σ receptor
  σ [%]: 81%
Dopaminergic D3 receptor
  inhibition at 1 µM: 95%
[2]
  inhibition at 1 µM: 47%
Adrenergic α1 receptor
  α1 [%]: 90%
Dopaminergic D2 receptor
  inhibition at 1 µM: 98%
Muscarinic M3 receptor
  inhibition at 1 µM: 28%
[3]
  inhibition at 1 µM: 85%
[4]
  inhibition at 1 µM: 84%
Adrenergic α2C receptor
  inhibition at 1 µM: 94%
[5]
  inhibition at 1 µM: 102%
[6]
  inhibition at 1 µM: 93%
[7]
  inhibition at 1 µM: 66%

## O=c1[nH]c2cccc(N3CCN(CCCNS(=O)(=O)c4cccc(Cl)c4)CC3)c2[nH]1 [Compound 174, 3-Chloro-N-[3-[4-(2-oxo-1,3-dihydrobenzimidazol-4-yl)piperazin-1-yl]propyl]benzenesulphonamide]
[1]
  inhibition at 1 µM: 92%
Sigma σ receptor
  σ [%]: −16%
Dopaminergic D3 receptor
  inhibition at 1 µM: 96%
[2]
  inhibition at 1 µM: 11%
Adrenergic α1 receptor
  α1 [%]: 86%
Dopaminergic D2 receptor
  inhibition at 1 µM: 91%
Muscarinic M3 receptor
  inhibition at 1 µM: 15%
[3]
  inhibition at 1 µM: 25%
[4]
  inhibition at 1 µM: 98%
Adrenergic α2C receptor
  inhibition at 1 µM: 55%
[5]
  inhibition at 1 µM: -24%
[6]
  inhibition at 1 µM: 4%
[7]
  inhibition at 1 µM: 0%

## O=S(=O)(NCCCN1CCN(c2nsc3ccccc23)CC1)c1cc2ccccc2s1 [Compound 262, N-[3-[4-(1,2-Benzothiazol-3-yl)piperazin-1-yl]propyl]benzothiophene-2-sulphonamide]
[1]
  inhibition at 1 µM: 99%
Sigma σ receptor
  σ [%]: 51%
Dopaminergic D3 receptor
  inhibition at 1 µM: 98%
[2]
  inhibition at 1 µM: 87%
Adrenergic α1 receptor
  α1 [%]: 95%
Dopaminergic D2 receptor
  inhibition at 1 µM: 98%
Muscarinic M3 receptor
  inhibition at 1 µM: 19%
[3]
  inhibition at 1 µM: 95%
[4]
  inhibition at 1 µM: 99%
Adrenergic α2C receptor
  inhibition at 1 µM: 94%
[5]
  inhibition at 1 µM: 102%
[6]
  inhibition at 1 µM: 93%
[7]
  inhibition at 1 µM: 84%

## N#Cc1cccc(S(=O)(=O)NCCCN2CCN(c3nsc4ccccc34)CC2)c1 [Compound 74, N-[3-[4-(1,2-Benzothiazol-3-yl)piperazin-1-yl]propyl]-3-cyanobenzenesulphonamide]
[1]
  inhibition at 1 µM: 97%
Sigma σ receptor
  σ [%]: 34%
Dopaminergic D3 receptor
  inhibition at 1 µM: 92%
[2]
  inhibition at 1 µM: 79%
Adrenergic α1 receptor
  α1 [%]: 94%
Dopaminergic D2 receptor
  inhibition at 1 µM: 93%
Muscarinic M3 receptor
  inhibition at 1 µM: 17%
[3]
  inhibition at 1 µM: 90%
[4]
  inhibition at 1 µM: 99%
Adrenergic α2C receptor
  inhibition at 1 µM: 92%
[5]
  inhibition at 1 µM: 102%
[6]
  inhibition at 1 µM: 95%
[7]
  inhibition at 1 µM: 78%

## O=S(=O)(NCCCN1CCC(c2noc3cc(F)ccc23)CC1)c1cc2cccnc2[nH]1 [Compound 357, N-[3-[4-(6-Fluoro-1,2-benzoxazol-3-yl)piperidin-1-yl]propyl]-1H-pyrrolo[2,3-b]pyridine-2-sulphonamide]
[1]
  inhibition at 1 µM: 99%
Sigma σ receptor
  σ [%]: 64%
Dopaminergic D3 receptor
  inhibition at 1 µM: 94%
[2]
  inhibition at 1 µM: 41%
Adrenergic α1 receptor
  α1 [%]: 99%
Dopaminergic D2 receptor
  inhibition at 1 µM: 99%
Muscarinic M3 receptor
  inhibition at 1 µM: 25%
[3]
  inhibition at 1 µM: 84%
[4]
  inhibition at 1 µM: 63%
Adrenergic α2C receptor
  inhibition at 1 µM: 94%
[5]
  inhibition at 1 µM: 101%
[6]
  inhibition at 1 µM: 94%
[7]
  inhibition at 1 µM: 83%

## COc1cccc(S(=O)(=O)NCCCCN2CCC(c3noc4cc(F)ccc34)CC2)c1 [Compound 300, N-[4-[4-(6-Fluoro-1,2-benzoxazol-3-yl)piperidin-1-yl]butyl]-3-methoxybenzenesulphonamide]
[1]
  inhibition at 1 µM: 99%
Sigma σ receptor
  σ [%]: 83%
Dopaminergic D3 receptor
  inhibition at 1 µM: 96%
[2]
  inhibition at 1 µM: 30%
Adrenergic α1 receptor
  α1 [%]: 96%
Dopaminergic D2 receptor
  inhibition at 1 µM: 96%
Muscarinic M3 receptor
  inhibition at 1 µM: 18%
[3]
  inhibition at 1 µM: 87%
[4]
  inhibition at 1 µM: 80%
Adrenergic α2C receptor
  inhibition at 1 µM: 94%
[5]
  inhibition at 1 µM: 102%
[6]
  inhibition at 1 µM: 89%
[7]
  inhibition at 1 µM: 49%

## O=S(=O)(NCCCN1CCN(c2nsc3ccccc23)CC1)c1cccc(C(F)(F)F)c1 [Compound 258, N-[3-[4-(1,2-Benzothiazol-3-yl)piperazin-1-yl]propyl]-3-(trifluoromethyl)benzenesulphonamide]
[1]
  inhibition at 1 µM: 100%
Sigma σ receptor
  σ [%]: 61%
Dopaminergic D3 receptor
  inhibition at 1 µM: 97%
[2]
  inhibition at 1 µM: 80%
Adrenergic α1 receptor
  α1 [%]: 97%
Dopaminergic D2 receptor
  inhibition at 1 µM: 95%
Muscarinic M3 receptor
  inhibition at 1 µM: 15%
[3]
  inhibition at 1 µM: 97%
[4]
  inhibition at 1 µM: 100%
Adrenergic α2C receptor
  inhibition at 1 µM: 98%
[5]
  inhibition at 1 µM: 101%
[6]
  inhibition at 1 µM: 98%
[7]
  inhibition at 1 µM: 86%

## O=S(=O)(NCCCCN1CCN(c2nsc3ccccc23)CC1)c1cccc(O)c1 [Compound 231, N-[4-[4-(1,2-Benzothiazol-3-yl)piperazin-1-yl]butyl]-3-hydroxybenzenesulphonamide]
[1]
  inhibition at 1 µM: 99%
Sigma σ receptor
  σ [%]: 62%
Dopaminergic D3 receptor
  inhibition at 1 µM: 97%
[2]
  inhibition at 1 µM: 59%
Adrenergic α1 receptor
  α1 [%]: 96%
Dopaminergic D2 receptor
  inhibition at 1 µM: 99%
Muscarinic M3 receptor
  inhibition at 1 µM: 11%
[3]
  inhibition at 1 µM: 97%
[4]
  inhibition at 1 µM: 97%
Adrenergic α2C receptor
  inhibition at 1 µM: 99%
[5]
  inhibition at 1 µM: 101%
[6]
  inhibition at 1 µM: 95%
[7]
  inhibition at 1 µM: 87%
